The values that follow come from patent US20040234978A1, “Novel potential-dependent cation channel protein” (priority 2001, published 2004).

This experiment relates to CAE9577. As to the kind of experiment: Na current measurement in CAE9577 expressed oocytes. The format is cell-based, human.

For the molecule `NC1=N[C@H](O)[C@H]2[C@H]3O[C@]4(O)O[C@@H]([C@@H](O)[C@@]2(N1)[C@@H]4O)[C@]3(O)CO` [TTX, Tetrodotoxin], the “inhibition of the inward Na current” value is “partially inhibited”.
